Measured values as given in patent US10413529B2, “Methods of inhibiting cataracts and presbyopia” (UNIVERSITY OF MASSACHUSETTS, priority 2013, dated 2019).
Where two headings read alike, the source gives them in different places.

What was measured:
γD-crystallin = biological target: T1, γD-crystallin (Homo sapiens, UniProt P07320); test: Dynamic light scattering (DLS) of γD-crystallin, hydrodynamic radius of monomer and aggregate; type: biochemical; conditions: γD modified with the agent
T1 construct: 6xHis (N); made in house; host or cells: M15pRep E. coli (pQe1 plasmid from King Labs, MIT)
T1 sequence (P07320 1-174): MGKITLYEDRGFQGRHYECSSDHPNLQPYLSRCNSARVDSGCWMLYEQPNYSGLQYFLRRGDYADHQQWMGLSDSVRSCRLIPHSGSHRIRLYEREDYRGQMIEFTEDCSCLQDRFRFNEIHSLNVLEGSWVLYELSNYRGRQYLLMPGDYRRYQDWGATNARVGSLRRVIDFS
Method: (§1) The scattering wave vector is defined as q=4πn sin (θ/2)/λ, where θ is the scattering angle, and λ=514.5, the wavelength of the argon laser in vacuum, and n is 1.33, the refractive index of water. The temperature of the sample was held at constant temperature of 4 to 37±0.1° C. by a circulating water bath. The correlation function was analyzed using CONTIN analysis [NT] times for the correlation functions at measured angles. […] The delay times (τ) were converted to Γ and graphed versus q^2. The slope of the fitted line is the diffusion coefficient (D). […] All solutions were filtered with 0.22 μm hydrophobic PVDF membranes (Fisher Scientific) into 10 mm diameter borosilicate glass tubes and sealed. Solutions were allowed to equilibrate for thirty minutes prior to measuring light scattering. […] The pH and salt concentration were adjusted via overnight dialysis at 4° C. and their final concentration adjusted to 1.0 g/L. […] The scattering wave vector is defined as q=4πn sin (θ/2)/λ, where θ is the scattering angle, and λ=514.5, the wavelength of the argon laser in vacuum, and n is 1.33, the refractive index of water. The temperature of the sample was held at constant temperature of 4 to 37±0.1° C. by a circulating water bath. The correlation function was analyzed using CONTIN analysis [NT] times for the correlation functions at measured angles. […] The delay times (τ) were converted to Γ and graphed versus q^2. The slope of the fitted line is the diffusion coefficient (D). […] All solutions were filtered with 0.22 μm hydrophobic PVDF membranes (Fisher Scientific) into 10 mm diameter borosilicate glass tubes and sealed. Solutions were allowed to equilibrate for thirty minutes prior to measuring light scattering.

γS-crystallin = biological target: T2, γS-crystallin (Homo sapiens, UniProt P22914); test: Dynamic light scattering (DLS) of γS-crystallin, hydrodynamic radius of monomer and aggregate; type: biochemical; conditions: γS modified with the agent
T2 construct: 6xHis (N); made in house; host or cells: M15pRep E. coli (pQe1 plasmid from King Labs, MIT)
T2 sequence (P22914 1-178): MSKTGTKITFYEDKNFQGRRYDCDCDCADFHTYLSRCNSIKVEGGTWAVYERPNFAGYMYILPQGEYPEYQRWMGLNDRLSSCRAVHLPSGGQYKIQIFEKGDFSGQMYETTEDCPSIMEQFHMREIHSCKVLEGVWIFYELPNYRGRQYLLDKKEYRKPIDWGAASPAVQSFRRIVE
Method: as §1

human cadaver lenses = tested on: human cadaver lenses; set-up: key to LOCS III grade, Cortical / LOCS III grade, NO / LOCS III grade, PS / LOCS III grade, NC: LOCS III cataract grade on a decimal scale (higher = more severe)
Method: Within about 24 hours of death, the eyeball is harvested, sliced and the vitreous is removed. The lens is excised and placed in an incubation medium called Optisol®. Optisol® is a corneal storage medium containing chondroitin sulfate, dextran 40, optisol base powder, sodium bicarbonate, gentamycin, amino acids, sodium pyruvate, L-glutamine, 2-mercaptoethanol and purified water. OD is the right eye and OS is the left eye.
Lens opacities are classified according to the LOCS III system. LOCS III measurements are taken with a slit lamp microscope. The LOCS III contains an expanded set of standards selected from the Longitudinal Study of Cataract slide library at the Center for Clinical Cataract Research, Boston, Mass. It includes six slit lamp images for grading nuclear color (NC) and nuclear opalescence (NO), five retroillumination images for grading cortical cataract (C), and five retroillumination images for grading posterior subcapsular (P) cataract. Cataract severity is graded on a decimal scale, with the standards have regularly spaced intervals on the scale.
In all cases, the control is Optisol® medium. The remaining data points are for isolated human cadaver lenses treated with CAPEG4 solutions with Optisol®.

[1] = fast mode (monomer, first Rh column), 22° C.
[2] = fast mode (monomer, first Rh column), 22° C., listed as CAPEG
[3] = 10 mg/mL CAPEG4 (OD), 0 HR, Table 7
[4] = 10 mg/mL CAPEG4, 24 HR, Table 7
[5] = 10 mg/mL CAPEG4, 72 HR, Table 7
[6] = 50 mg/mL CAPEG4 (OD), 0 HR, Table 8
[7] = 50 mg/mL CAPEG4, 24 HR, Table 8
[8] = 50 mg/mL CAPEG4, 72 HR, Table 8
[9] = 100 mg/mL CAPEG4 (OD), 0 HR, Table 9
[10] = 100 mg/mL CAPEG4 (OD), 0 HR, Table 10 (repeat, different eyes)
[11] = 100 mg/mL CAPEG4, 24 HR, Table 9
[12] = 100 mg/mL CAPEG4, 24 HR, Table 10 (repeat, different eyes)
[13] = 100 mg/mL CAPEG4, 72 HR, Table 9
[14] = 100 mg/mL CAPEG4, 72 HR, Table 10 (repeat, different eyes)
[15] = 200 mg/mL CAPEG4 (OD), 0 HR, Table 11
[16] = 200 mg/mL CAPEG4 (OD), 0 HR, Table 12 (second pair of lenses)
[17] = 200 mg/mL CAPEG4, 24 HR, Table 11
[18] = 200 mg/mL CAPEG4, 24 HR, Table 12 (second pair of lenses)
[19] = 200 mg/mL CAPEG4, 72 HR, Table 11
[20] = 200 mg/mL CAPEG4, 72 HR, Table 12 (second pair of lenses)

NCCOCCOCCOCCOCCC(=O)O [CAPEG4]
Rh (γD-crystallin; fast mode (monomer), 37° C.): 2.8 nm | Rh (γD-crystallin; [1]): 2.9 nm | Rh (γD-crystallin; [2]): 2.8 nm | Rh (γS-crystallin; fast mode (monomer), 37° C.): 3 nm | Rh (γS-crystallin; fast mode (monomer), 37° C., listed as CAPEG): 2.9 nm | Rh (γS-crystallin; [1]): 2.8 nm | Rh (γS-crystallin; [2]): 2.9 nm | observation on lens capsule and lens volume (human cadaver lenses): wrinkling of the lens capsule was observed and subjectively exhibited some loss of lens volume | change of LOCS III grades versus control (human cadaver lenses; 10 mg/mL CAPEG4): no significant change in the experimental versus control samples | LOCS III grade, Cortical (human cadaver lenses; [3]): 1.0 | LOCS III grade, NC (human cadaver lenses; [3]): 5.0 | LOCS III grade, NO (human cadaver lenses; [3]): 5.0 | LOCS III grade, PS (human cadaver lenses; [3]): 0.9 | LOCS III grade, Cortical (human cadaver lenses; [4]): 1.0 | LOCS III grade, NC (human cadaver lenses; [4]): 5.0 | LOCS III grade, NO (human cadaver lenses; [4]): 5.0 | LOCS III grade, PS (human cadaver lenses; [4]): 0.9 | LOCS III grade, Cortical (human cadaver lenses; [5]): 0.9 | LOCS III grade, NC (human cadaver lenses; [5]): 5.0 | LOCS III grade, NO (human cadaver lenses; [5]): 5.0 | LOCS III grade, PS (human cadaver lenses; [5]): 0.9 | LOCS III grade, Cortical (human cadaver lenses; [6]): 1.0 | LOCS III grade, NC (human cadaver lenses; [6]): 1.7 | LOCS III grade, NO (human cadaver lenses; [6]): 2.0 | LOCS III grade, PS (human cadaver lenses; [6]): 1.1 | LOCS III grade, Cortical (human cadaver lenses; [7]): 1.0 | LOCS III grade, NC (human cadaver lenses; [7]): 1.7 | LOCS III grade, NO (human cadaver lenses; [7]): 2.0 | LOCS III grade, PS (human cadaver lenses; [7]): 0.9 | LOCS III grade, Cortical (human cadaver lenses; [8]): 1.0 | LOCS III grade, NC (human cadaver lenses; [8]): 1.9 | LOCS III grade, NO (human cadaver lenses; [8]): 2.0 | LOCS III grade, PS (human cadaver lenses; [8]): 0.9 | difference of cortical cataracts and NO versus controls (human cadaver lenses; 50 mg/mL CAPEG4, up to 72 hours): no significant differences between the controls and 50 mg/mL incubation | LOCS III grade, Cortical (human cadaver lenses; [9]): 3.0 | LOCS III grade, NC (human cadaver lenses; [9]): 1.3 | LOCS III grade, NO (human cadaver lenses; [9]): 1.8 | LOCS III grade, PS (human cadaver lenses; [9]): 0.9 | LOCS III grade, Cortical (human cadaver lenses; [10]): 3.0 | LOCS III grade, NC (human cadaver lenses; [10]): 3.0 | LOCS III grade, NO (human cadaver lenses; [10]): 3.0 | LOCS III grade, PS (human cadaver lenses; [10]): 1.8 | LOCS III grade, Cortical (human cadaver lenses; [11]): 2.9 | LOCS III grade, NC (human cadaver lenses; [11]): 1.1 | LOCS III grade, NO (human cadaver lenses; [11]): 1.2 | LOCS III grade, PS (human cadaver lenses; [11]): 0.9 | LOCS III grade, Cortical (human cadaver lenses; [12]): 2.6 | LOCS III grade, NC (human cadaver lenses; [12]): 3.0 | LOCS III grade, NO (human cadaver lenses; [12]): 3.0 | LOCS III grade, PS (human cadaver lenses; [12]): 1.5 | LOCS III grade, Cortical (human cadaver lenses; [13]): 2.7 | LOCS III grade, NC (human cadaver lenses; [13]): 1.1 | LOCS III grade, NO (human cadaver lenses; [13]): 1.2 | LOCS III grade, PS (human cadaver lenses; [13]): 0.9 | LOCS III grade, Cortical (human cadaver lenses; [14]): 2.0 | LOCS III grade, NC (human cadaver lenses; [14]): 3.2 | LOCS III grade, NO (human cadaver lenses; [14]): 3.0 | LOCS III grade, PS (human cadaver lenses; [14]): 1.0 | LOCS III grade, Cortical (human cadaver lenses; [15]): 2.5 | LOCS III grade, NC (human cadaver lenses; [15]): 2.4 | LOCS III grade, NO (human cadaver lenses; [15]): 2.4 | LOCS III grade, PS (human cadaver lenses; [15]): 0 | LOCS III grade, Cortical (human cadaver lenses; [16]): 1.3 | LOCS III grade, NC (human cadaver lenses; [16]): 2.8 | LOCS III grade, NO (human cadaver lenses; [16]): 3.2 | LOCS III grade, PS (human cadaver lenses; [16]): 0.9 | LOCS III grade, Cortical (human cadaver lenses; [17]): 2.2 | LOCS III grade, NC (human cadaver lenses; [17]): 2.4 | LOCS III grade, NO (human cadaver lenses; [17]): 2.4 | LOCS III grade, PS (human cadaver lenses; [17]): 0 | LOCS III grade, Cortical (human cadaver lenses; [18]): 1.0 | LOCS III grade, NC (human cadaver lenses; [18]): 2.8 | LOCS III grade, NO (human cadaver lenses; [18]): 3.2 | LOCS III grade, PS (human cadaver lenses; [18]): 0.9 | LOCS III grade, Cortical (human cadaver lenses; [19]): 2.0 | LOCS III grade, NC (human cadaver lenses; [19]): 2.4 | LOCS III grade, NO (human cadaver lenses; [19]): 2.4 | LOCS III grade, PS (human cadaver lenses; [19]): 0 | LOCS III grade, Cortical (human cadaver lenses; [20]): 0.9 | LOCS III grade, NC (human cadaver lenses; [20]): 2.8 | LOCS III grade, NO (human cadaver lenses; [20]): 3.2 | LOCS III grade, PS (human cadaver lenses; [20]): 0.9 | cause of reduction in cataracts (agent versus pH of medium) (human cadaver lenses; compared with Optisol lowered to the same pH with citric acid): due to the CAPEG4 and not a pH effect of the medium
